Experimental data taken from US20240245721A1, “DOUBLE SIDED CHIMERIC ANTIGEN RECEPTOR (CAR) ENGINEERED CELL MEMBRANE BASED DRUG DELIVERY SYSTEMS” (BOARD OF REGENTS, THE UNIVERSITY OF TEXAS SYSTEM, priority 2021, published 2024).
Like-named read-outs stand apart in the source and are kept apart here.

Columns and labels:
SKOV-3 cells = experiment: In vitro cytotoxicity (MTT) on SKOV-3; assay type: cell-based; settings: read-out: IC50 (half maximal inhibitory concentration)
Procedure: (§1) A549, MDA-MB-231 and SKOV-3 cells were seeded (5×10^3 cells/well) in 96-well plates and incubated overnight. Free Afatinib, Afatinib loaded PLGA NPs, anti HER-2 PLGA NPs, Jurkat-T-MNPs, and CAR-T-MNPs were added to the seeded cells (n=4). Alternatively, free cisplatin, cisplatin loaded PLGA NPs, Jurkat-T-MNPs, and CAR-T-MNPs were added to the seeded cells (n=4) at a cisplatin concentration of 7 μM (A549) & 3.5 μM (SKOV-3). After incubation for 48 hours, the absorbance at 490 nm was measured using UV-VIS Spectrophotometer (Tecan) after incubating with MTT reagent (Promega) for one hour. Cell viabilities were calculated via normalizing to the control group (cells exposed to complete media, 100% viability).

[1] = tested on: subcutaneous A549 tumor implanted in nude mice; experiment: In vivo therapeutic efficiency (tumor delay, survival, weight, H&E histology); settings: 2-week post treatment, single IV dose, cisplatin 3 mg/kg
Procedure: Nude mice (NU/J) aged 5-6 weeks were purchased from Jacksons Laboratory. Briefly, 2×10^6 A549 cells in 200 μL of Matrigel (Corning, NY) were injected subcutaneously in athymic nude mice. Tumor volumes were checked at regular intervals of 3 days and treatment started when the volume reached ˜300 mm3. Tumor volumes were measured using a standard Vernier Calipers. All procedures involving experimental animals were performed in accordance with the protocols approved by the University of Texas at Arlington Institutional Animal Care and Use Committee.
Xenograft tumors as described above were used to evaluate the therapeutic efficiency of CAR-T-MNPs. After the tumor reached ˜300 mm3, the mice were randomly distributed into 4 groups (n=3) for different treatment groups. Prior to treatment, all mice were ear-tagged, the initial tumor volumes were measured by a caliper, and the body weights were recorded. The treatment groups received a single tail-vein IV administration of either of 200 μL of saline (control), free drug, Jurkat-T-MNPs or CAR-T-MNPs. Tumor volume was measured every 2-3 days via a caliper. Tumor volumes were calculated by measuring the tumor perpendicular diameters with a caliper and calculated using the formula V=½×a×b2, where a and b are the longest diameter and its longest perpendicular diameter, respectively. […]

MDA-MB-231 cells = experiment: In vitro cytotoxicity (MTT) on MDA-MB-231; assay type: cell-based; settings: Homo sapiens; MDA-MB-231, 48 hour exposure
Procedure: as §1

A549 cells = experiment: In vitro cytotoxicity (MTT) on A549; assay type: cell-based; settings: Homo sapiens, afatinib: 48 hour exposure, read-out: IC50 (half maximal inhibitory concentration)
Procedure: as §1

Row | SMILES | IC50 (SKOV-3 cells; afatinib: 48 hour exposure) [µM] | tumor volume [1] | IC50 (MDA-MB-231 cells) [µM] | IC50 (A549 cells) [µM] | IC50 (SKOV-3 cells; Homo sapiens, SK-OV-3, afatinib: 48 hour exposure) [µM]
1 | N.N.[Cl][Pt][Cl] [cisplatin, Cisplatin] | 4 | increasing trend | – | – | –
2 | CN(C)C/C=C/C(=O)Nc1cc2c(Nc3ccc(F)c(Cl)c3)ncnc2cc1O[C@H]1CCOC1 [afatinib, Afatinib] | – | – | ~3.7 | ~4.3 | ~1.4
